Test results published in US10919929B2, “Glucocorticoid inhibitors for treatment of prostate cancer” (Sloan-Kettering Institute for Cancer Research, priority 2013, dated 2021).

Key:
[1] = tested on: AR target genes in LREX′ cells; assay: Expression of AR target genes in LREX′ cell line in steroid depleted media (RT-qPCR); format: cell-based, human
From the text: A. Normalized expression array signal (Illumina HT-12) of a suite of 74 AR target genes in control (n=10), 4 day (n=8), and LREX′ (n=8, right) xenograft tumors. Genes are ranked by degree of restoration of expression in resistant tissue ((Res-4 day)/(Control-4 day)). All resistant tissues were continued on anti-androgen treatment through time of harvest. B. Fractional restoration values of each of the 74 AR targets in LREX′ xenografts (n=8) or resistant tissues from the validation cohort (n=12). C. GR mRNA in resistant tissues used in B. D. Expression of AR target genes in the LREX′ cell line in steroid depleted media after 8 hours of treatment with the indicated agonists, in vitro. […] A. LnCaP/AR cells engineered to express GFP or GR were treated with indicated drugs. […] D. Control or AR siRNA knock-down in LREX′ followed by treatment with indicated drugs. […] Cells were treated in charcoal stripped media. Expression determined by RT-qPCR+/−s.e.m.
LREX′ cells were derived from a single enzalutamide resistant tumor that was harvested, disaggregated with collagenase treatment, and then maintained in RPMI supplemented with 20% FBS and 1 μM enzalutamide. Cells were initially grown on collagen-coated flasks until confluent and then were maintained on standard tissue culture dishes. CS1 were similarly derived from vehicle treated tumors and maintained in standard LNCaP/AR media. LNCaP/AR and LREX′ cells were cultured in phenol-red free RPMI with 10% charcoal-stripped FBS prior to drug treatments.

GR mRNA in LREX′ cells = GR mRNA in LREX′ cells cultured in vitro; format: cell-based, human
[2] = tested on: AR target gene expression; assay: AR target gene expression with GR antagonists; format: cell-based
[3] = tested on: LNCaP/AR xenograft tumors; assay: LNCaP/AR xenograft pilot cohort, continual antiandrogen treatment until acquired resistance
GR = GR (Homo sapiens, UniProt P04150); details: patients with Cushing syndrome; cited from earlier work
PSA = assay: Maximal PSA decline in patients receiving enzalutamide; format: in vivo; details: enzalutamide 160 mg daily
Protocol: Patients were treated with enzalutamide 160 mg daily. Bone marrow biopsy and aspirate (˜5 mL) were performed before treatment and at week 8. The bone marrow specimens were obtained by transiliac biopsy, and samples were processed according to standard MD Anderson Cancer Center decalcification and fixation procedures. After pathologic evaluation, samples were stored in the MD Anderson Cancer Center Prostate Cancer Tissue Bank. Imaging studies were performed at the time of suspected prostate cancer progression or at the treating physician's discretion, but generally not prior to 12 weeks post-treatment initiation. […] Retrospective analysis for GR was performed by IHC on […] formalin-fixed, paraffin-embedded bone marrow biopsy sections with anti-GR at a dilution of 1:200 (BD Transduction Laboratories #611227). A Dako autostainer and standard 3,3-diaminobenzidine were used. GR expression was assessed in a blinded fashion by two pathologists scoring at least 100 tumor cells per specimen. […]
To determine whether GR expression is a feature of clinical antiandrogen resistance, GR expression was evaluated in bone metastases from patients receiving enzalutamide. […] Using a GR IHC assay optimized for use in bone marrow samples, the percentage of GR-positive tumor cells was quantified and the data was dichotomized based on clinical response. […]

[4] = tested on: LREX′ cells transcriptome; assay: Expression profiling of LREX′ cells after DHT or Dex, AR and GR signatures; format: cell-based, human; details: enzalutamide 10 micromolar
VCaP cells = assay: VCaP cell viability by CellTiter-Glo; format: cell-based; details: Enz 10 micromolar, standard culture conditions
Protocol: Enz=10 micromolar, Dex=100 nM, CMP 15=1 micromolar. A. Western blot analysis of prostate cancer cell lines. B, C and D. Cell viability assessed by CellTiter-Glo (Promega) assay and normalized to day 1 value after indicated treatments+/−s.e.m. E. Confirmation of GR knock-down by western blot after infection with GR targeting shRNA. F. Apoptosis as assessed by cPARP western blot after 3 days of indicated treatment. G. A suite of AR targets relevant to VCaP was defined (see methods) and normalized expression of each gene after 24 hours of indicated drug treatments is depicted by heat map and ranked by degree of induction with Dex. H. Expression of the top two genes from B. (KLK2 and FKBP5) after 24 hours of indicated treatments+/−s.e.m.
VCaP: Cells were plated in triplicate and then assayed in triplicate at the time points indicated using CellTiter-Glo (Promega). Viability is plotted normalized to day 1. For knockdown studies, cells were infected and then plated 3 days later for the experiment without prior drug selection. LnCaP/AR and sub-lines: Equivalent numbers of cells were plated and then harvested and counted in triplicate at indicated time points using the Beckman Coulter Vi-Cell XR. Cells were passaged at each time point and identical numbers of cells re-plated. Fold increase in cell numbers were determined for each time interval. […]

LnCaP/AR and sub-lines = assay: In vitro growth by cell counting (Vi-cell); format: cell-based; details: 1 micromolar enzalutamide
Protocol: . […] C. […] AUC=area under curve. […] .
VCaP: Cells were plated in triplicate and then assayed in triplicate at the time points indicated using CellTiter-Glo (Promega). Viability is plotted normalized to day 1. For knockdown studies, cells were infected and then plated 3 days later for the experiment without prior drug selection. LnCaP/AR and sub-lines: Equivalent numbers of cells were plated and then harvested and counted in triplicate at indicated time points using the Beckman Coulter Vi-Cell XR. Cells were passaged at each time point and identical numbers of cells re-plated. Fold increase in cell numbers were determined for each time interval.

[5] = mouse, in vivo; cited from earlier work
[6] = tested on: GR protein in CS1 or LnCaP/AR cells; assay: Intracellular GR flow cytometry of CS1 and LnCaP/AR cells under enzalutamide; details: enzalutamide 1 micromolar, 4 week experiment
Protocol: (§1) Cells were re-suspended in Fixation/Permeabilization working solution (eBioscience; San Diego, Calif., USA) at a concentration of 1-2×10^6 cells/ml for 30 minutes at room temperature. The cells were subsequently stained with primary antibodies, Rabbit (DA1E) mAb IgG XP® Isotype Control, androgen receptor (D6F11) XP® Rabbit mAb, or glucocorticoid receptor (D6H2L) XP® Rabbit mAb (Cell Signaling Technology; Danvers, Mass., USA) for 20 minutes at room temperature. The cells were washed twice with Flow Cytometry Staining Buffer (eBioscience; San Diego, Calif., USA), and then stained with secondary antibody, Allophycocyanin-AffiniPure F(ab′)2 Fragment Donkey Anti-Rabbit IgG (Jackson ImmunoResearch Laboratories, Inc.; Westgrove, Pa., USA) for 20 minutes at room temperature. Following two more washes, the cells were re-suspended in Flow Cytometry Staining Buffer and analyzed by flow cytometry on a LSRII (BD Biosciences; San Jose, Calif., USA) using FlowJo software (Tree Star, Ashland, Oreg., USA). For GR staining, cells were maintained in their standard media and treated with dexamethasone for 20 minutes prior to harvest to fully expose antigen. For AR staining, cells were cultured in charcoal stripped media without added ligands for 3 days prior to harvest.

[7] = tested on: GR protein in LREX′ cells; assay: Intracellular GR flow cytometry of LREX′ cells on enzalutamide withdrawal and re-exposure; details: LREX′off cells re-exposed to enzalutamide 1 micromolar
Protocol: as §1

[8] = in vivo; cited from earlier work
[9] = list continues over r20-r28; cited from earlier work
[10] = steroid depleted media, 8 hours
[11] = harvest after progression on continued treatment

Chain of GR (P04150 whole entry): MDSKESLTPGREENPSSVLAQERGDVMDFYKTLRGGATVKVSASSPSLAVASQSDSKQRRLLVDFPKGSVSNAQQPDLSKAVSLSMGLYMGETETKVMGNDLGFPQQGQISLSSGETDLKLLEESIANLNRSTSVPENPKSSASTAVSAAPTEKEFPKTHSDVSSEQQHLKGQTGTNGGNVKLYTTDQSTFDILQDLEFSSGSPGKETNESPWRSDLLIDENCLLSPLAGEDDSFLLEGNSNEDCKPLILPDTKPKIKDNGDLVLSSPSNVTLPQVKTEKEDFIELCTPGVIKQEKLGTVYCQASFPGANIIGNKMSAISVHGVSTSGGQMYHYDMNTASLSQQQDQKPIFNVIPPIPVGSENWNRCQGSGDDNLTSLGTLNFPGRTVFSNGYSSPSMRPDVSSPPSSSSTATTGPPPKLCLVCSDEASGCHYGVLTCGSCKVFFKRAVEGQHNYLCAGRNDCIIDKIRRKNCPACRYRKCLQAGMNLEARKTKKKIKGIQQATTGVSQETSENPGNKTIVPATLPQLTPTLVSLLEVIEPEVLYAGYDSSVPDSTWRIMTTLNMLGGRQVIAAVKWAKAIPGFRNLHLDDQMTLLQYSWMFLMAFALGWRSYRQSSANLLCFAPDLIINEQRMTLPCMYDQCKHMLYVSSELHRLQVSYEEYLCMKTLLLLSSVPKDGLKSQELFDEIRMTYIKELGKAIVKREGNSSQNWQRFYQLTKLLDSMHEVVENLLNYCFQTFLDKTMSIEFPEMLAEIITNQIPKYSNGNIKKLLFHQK

C[C@]12CCC(=O)C[C@@H]1CC[C@@H]1[C@@H]2CC[C@]2(C)[C@@H](O)CC[C@@H]12 [DHT, dihydrotestosterone]
induction of KLK3 (PSA) [1, 10]: comparably induced
regulation of 8 genes (7 AR targets and PSA) [1, 10]: regulated
GR mRNA levels (GR mRNA in LREX′ cells; LREX′, charcoal stripped media, 8 hours DHT exposure): reduced GR mRNA levels

CC#C[C@]1(O)CC[C@H]2[C@@H]3CCC4=CC(=O)CCC4=C3[C@@H](c3ccc4c(c3)OCO4)C[C@@]21C [ORG 34517]
AR target gene expression [2]: activate AR target gene expression

CNC(=O)c1ccc(N2C(=S)N(c3ccc(C#N)c(C(F)(F)F)c3)C(=O)C23CCC3)cc1F [RD162]
% Regression: D 28 Mean ([3]; LNCaP/AR xenografts in castrate mice, 10 mg/kg oral, day 28): 80%
Day of Harvest: Mean [3, 11]: D173
Mean Tumor Volume (mm^3) at harvest [3, 11]: 554 mm^3

CC#C[C@]1(O)CC[C@H]2[C@@H]3CCC4=CC(=O)CCC4=C3[C@@H](c3ccc(N(C)C)cc3)C[C@@]21C [RU486, RU-486]
risk-benefit profile of GR inhibition in humans (GR): acceptable risk-benefit profile

CNC(=O)c1ccc(N2C(=S)N(c3ccc(C#N)c(C(F)(F)F)c3)C(=O)C2(C)C)cc1F [enzalutamide]
patients with maximal PSA decline greater than 50% (PSA; good responders (benefit > 6 months)): 11 of 13
patients with maximal PSA decline greater than 50% (PSA; poor responders (discontinued < 6 months)): 1 of 14
effect on DHT regulation of 8 AR target genes ([1]; enzalutamide 10 micromolar): blocked
effect on Dex activity ([1]; enzalutamide 10 micromolar): did not notably affect
effect on Dex-induced gene expression (heatmap) [4]: not impacted
growth of VCaP cells (VCaP cells): inhibited growth
GR mRNA levels after enzalutamide withdrawal in vitro (GR mRNA in LREX′ cells; LREX′ cells, FBS media without enzalutamide, 23 days): dropped as early as 1 day after discontinuation
effect of co-treatment on DHT reduction of GR mRNA (GR mRNA in LREX′ cells; LREX′, 10 micromolar enzalutamide, 8 hours): reversed
antiproliferative effect in vitro (LnCaP/AR and sub-lines): weak antiproliferative effect
half-life in mice [5]: prolonged half-life
median GR expression intensity [6]: no change in median expression intensity
doubling time of GR expression induction [7]: 6.8 days

CC(C)C(=O)Nc1ccc([N+](=O)[O-])c(C(F)(F)F)c1 [flutamide]
Distribution: Protein-binding [8]: Distribution: Protein-binding: 90%
Excretion [8]: Urine, faeces (small amounts)
Adverse Drug Reactions [9]: Hot flushes, loss of libido, impotence,
